Data on seven compounds can be found in patent publication US9365551B2, “2-(benzyloxy) benzamides as LRRK2 kinase inhibitors” (Glaxo Group Limited, priority 2010, dated 2016).

The target of assay [1] is T1, 6His-Tev-LRRK2 (1326-2527) (Homo sapiens, UniProt Q5S007).
T1 construct: A LRRK2 cDNA encoding residues 1326-2527 was received from Dundee University; made in house; host or cells: Spodoptera frugiperda (Sf9) insect cells, baculovirus (pFB-HTb)
T1 sequence (Q5S007 1326-2527): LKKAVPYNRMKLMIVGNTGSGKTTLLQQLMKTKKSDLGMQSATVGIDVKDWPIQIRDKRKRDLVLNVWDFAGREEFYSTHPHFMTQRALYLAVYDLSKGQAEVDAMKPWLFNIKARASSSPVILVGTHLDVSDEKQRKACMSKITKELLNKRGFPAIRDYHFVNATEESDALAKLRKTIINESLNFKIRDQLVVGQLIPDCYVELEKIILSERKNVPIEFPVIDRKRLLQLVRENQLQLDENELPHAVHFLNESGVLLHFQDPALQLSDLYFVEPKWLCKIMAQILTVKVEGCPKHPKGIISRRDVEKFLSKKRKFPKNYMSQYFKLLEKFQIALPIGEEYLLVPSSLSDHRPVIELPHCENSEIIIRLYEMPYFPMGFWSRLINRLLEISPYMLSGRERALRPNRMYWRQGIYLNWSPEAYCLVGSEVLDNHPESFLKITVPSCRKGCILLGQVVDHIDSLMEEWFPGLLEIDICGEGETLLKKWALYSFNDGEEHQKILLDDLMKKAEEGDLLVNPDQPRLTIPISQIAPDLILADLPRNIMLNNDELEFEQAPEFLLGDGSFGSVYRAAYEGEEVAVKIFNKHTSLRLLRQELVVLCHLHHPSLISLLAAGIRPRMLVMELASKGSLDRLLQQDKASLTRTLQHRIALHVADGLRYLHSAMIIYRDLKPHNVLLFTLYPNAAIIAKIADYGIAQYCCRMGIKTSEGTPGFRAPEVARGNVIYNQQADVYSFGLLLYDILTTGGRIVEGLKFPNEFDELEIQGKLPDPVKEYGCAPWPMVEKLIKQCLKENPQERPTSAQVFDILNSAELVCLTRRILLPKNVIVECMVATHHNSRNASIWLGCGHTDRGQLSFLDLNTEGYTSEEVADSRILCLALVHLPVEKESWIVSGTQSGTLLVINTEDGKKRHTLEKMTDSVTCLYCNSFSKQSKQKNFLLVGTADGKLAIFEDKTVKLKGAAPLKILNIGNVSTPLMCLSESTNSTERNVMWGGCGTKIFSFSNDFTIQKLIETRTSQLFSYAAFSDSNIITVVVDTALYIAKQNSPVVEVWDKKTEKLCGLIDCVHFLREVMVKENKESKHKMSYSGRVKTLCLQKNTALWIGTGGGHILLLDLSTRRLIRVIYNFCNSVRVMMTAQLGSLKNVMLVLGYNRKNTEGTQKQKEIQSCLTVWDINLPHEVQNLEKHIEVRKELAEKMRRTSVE
As to the kind of experiment: LRRK2 peptide substrate assay. The class given is biochemical. Particulars: mean pIC50 of multiple test results. The gist of the method:
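Compound (1:4 series, top 30 μM final) preincubated 30 min at RT with the enzyme solution (80 nM) in pH 7.2 Hepes, 10 mM MgCl2 buffer. Reaction was started with substrate solution (2 μM Biotin-LRRKtide, ATP at Km) and run 1–2 h at RT. Phospho-peptide detected by TR-FRET (Eu/APC, 665/620 nm) after EDTA stop.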

Assay [2] deals with T1, 6His-Tev-LRRK2 (1326-2527). As to the kind of experiment: LRRK2 AlphaScreen desensitised protein substrate assay. The class given is biochemical. Particulars: mean pIC50 of multiple test results. The gist of the method: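 Compounds (1:4 series, top final 30 μM) were preincubated 30 min at room temperature with 6His-Tev-LRRK2 (1326-2527) solution (80 nM) in Hepes pH 7.2, 10 mM MgCl2. Substrate solution held 200 nM GST-PS-Moesin (400-577) and 2 mM ATP, and the reaction ran 20 min. Phospho-Moesin Thr558 was read by AlphaLisa antibody-bead detection after 2 h.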
For orientation: In Alpha technology, singlet oxygen from a donor bead excites a nearby acceptor bead.

[3] abbreviates: stated as threshold, read-out: pIC50 in the LRRK2 peptide substrate assay (bounds) (converted).
The mark [4] stands for this setting: stated as threshold, read-out: pIC50 in the LRRK2 alphascreen desensitised protein substrate assay (bounds) (converted).

`Cn1cc(-c2cc(C(=O)Nc3cccc(Cl)c3)c(OCc3ccc(F)cc3)cc2C(=O)N2CCOCC2)cn1` [Example 48, N-(3-chlorophenyl)-2-((4-fluorobenzyl)oxy)-5-(1-methyl-1H-pyrazol-4-yl)-4-(morpholine-4-carbonyl)benzamide]: the IC50 in assay [1] (Biotin-LRRKtide peptide substrate, ATP at Km, read-out: LRRK2 peptide substrate assay (pIC50) (converted)) was 6.31 nM; in assay [1] (setting [3]), at most 10 nM; in assay [2] (GST-PS-Moesin (400-577) substrate, 2 mM ATP, read-out: LRRK2 alphascreen desensitized protein substrate assay (pIC50) (converted)), 15.8 nM; in assay [2] (setting [4]), at most 316 nM.
On to `Cn1cc(-c2cc(C(=O)Nc3cccc(Cl)c3)c(OCc3ccccc3)cc2CN2CCOCC2)cn1` [Example 49, 2-(benzyloxy)-N-(3-chlorophenyl)-5-(1-methyl-1H-pyrazol-4-yl)-4-(morpholinomethyl)benzamide], for which the IC50 in assay [1] (setting [3]) was at most 100 nM; in assay [2] (setting [4]), above 25100 nM.
For `O=C(Nc1cccc(Cl)c1)c1cc(C(F)(F)F)c(CN2CCOCC2)cc1OCc1ccccc1` [Example 52, 2-(Benzyloxy)-N-(3-chlorophenyl)-4-(morpholinomethyl)-5-(trifluoromethyl)benzamide] the same measures were at most 1260 nM and above 25100 nM.
For the compound `O=C(Nc1cccc(F)c1)c1cc(C(F)(F)F)c(CN2CCOCC2)cc1OCc1ccccc1` [Example 53, 2-(Benzyloxy)-N-(3-fluorophenyl)-4-(morpholinomethyl)-5-(trifluoromethyl)benzamide], the IC50 in assay [1] (setting [3]) was at most 10 nM; in assay [2] (setting [4]), above 25100 nM.
The matching figures for `CN1CCN(C(=O)c2cc(OCc3ccccc3)c(C(=O)Nc3ccnnc3)cc2Cl)CC1` [Example 55, 2-(benzyloxy)-5-chloro-4-(4-methylpiperazine-1-carbonyl)-N-(pyridazin-4-yl)benzamide]: at most 100 nM and at most 316 nM.
Turning to `CN1CCN(C(=O)c2cc(OCc3ccccc3)c(C(=O)Nc3cccnn3)cc2Cl)CC1` [Example 56, 2-(benzyloxy)-5-chloro-4-(4-methylpiperazine-1-carbonyl)-N-(pyridazin-3-yl)benzamide], the IC50 in assay [1] (setting [3]) was at most 100 nM; in assay [2] (setting [4]), at most 25100 nM.
The matching figures for `CN1CCN(C(=O)c2cc(OCc3ccccc3)c(C(=O)Nc3ccccc3)cc2Cl)CC1` [Example 57, 2-(benzyloxy)-5-chloro-4-(4-methylpiperazine-1-carbonyl)-N-phenylbenzamide]: at most 100 nM and at most 25100 nM.
